Measured values published in US20230312550A1, “N-(2-(4-CYANOTHIAZOLIDIN-3-YL)-2-OXOETHYL)-QUINOLINE-4-CARBOXAMIDES” (AstraZeneca AB, priority 2020, published 2023).
Converted amounts (≈) assume the structure as drawn.

How the values were obtained:
[1] = biological target: human Fibroblast activation protein alpha (hFAP) (Homo sapiens (Human), UniProt Q12884); experiment: hFAP inhibition assay (tight binders); type: biochemical; settings: Ala-Pro-AMC 20 μM, n = 1 or geometric mean n = 2-6; further: hFAP 2.4 pM
Protocol: The plates were read on a PHERAstar® reader with excitation 340 nm and emission 460 nm. Data were analyzed in Genedata Screener®. IC50 values were determined by plotting % inhibition versus log compound concentration and using a one site dose response model.

[2] = biological target: hFAP (M39-A757) (Homo sapiens (Human), UniProt Q12884); experiment: hFAP binding assay (surface plasmon resonance); settings: SPR, 20° C.; for hFAP Binding assay k(off) / hFAP Binding assay k(on): single cycle kinetics; for Kd: n = 1 or geometric mean n = 2-4
Protocol: Compounds were tested in a direct binding assay using 8K surface plasmon resonance biosensor (GE Healthcare) at 20° C. Immobilization of hFAP (M39-A757) on a CMD200M sensor chip (Xantec) was performed using standard amine coupling procedure in immobilization buffer (10 mM HEPES, 150 mM NaCl, 0.05% Tween20, pH 7.4). The surface was washed with 10 mM NaOH, 1M NaCl before being activated with EDC/NHS (GE Healthcare), followed by immobilization of hFAP (in 10 mM Acetate pH 5.0). Finally, the surface was deactivated by ethanolamine. Immobilization levels of hFAP were around 4000-6000 RU. The reference spot was treated as described, omitting the injection of hFAP. Compound concentration series were injected over the immobilized protein in increasing concentrations (2-500 nM) using single cycle kinetics in running buffer (20 mM TRIS, 150 mM NaCl, 0.05% Tween20, 1% DMSO, pH 7.4). Interaction models were fitted globally to the experimental traces, enabling determination of kon, koff and Kd.

[3] = biological target: Prolyl endopeptidase, Prolyl Oligopeptidase (hPREP) (Homo sapiens (Human), UniProt P48147); experiment: hPrep inhibition assay; type: biochemical; settings: hPREP 0.6 nM, Z-Gly-Pro-amino-methylcoumarin 50 μM; read-out: PREP IC50
Protocol: Compounds were tested in a biochemical inhibition assay using Prolyl endopeptidase, Prolyl Oligopeptidase (hPREP) enzyme at 0.6 nM FAC (R&D Systems, 4308-SE) and the substrate Z-Gly-Pro-amino-methylcoumarin (Bachem, I-1145) at 50 μM FAC. 384 Low volume black plates (Greiner #784076) were used. […] Plates were incubated for 15 min at rt in dark. 4 μL, 100 μM substrate solution (25 mM Tris HCl, 250 mM NaCl, 0.01% Triton X-100, 5 mM Glutathione, pH 7.5) was added to each well. Plates were centrifuged at 1000 rpm and incubated for 20 min at rt in dark. The plates were read on a PHERAstar® reader with excitation 340 nm and emission 460 nm. Data were analyzed in Genedata Screener®. IC50 values were determined by plotting % inhibition versus log compound concentration and using a one site dose response model.

[4] = Kinetic solubility; settings: kinetic from dmso stock
Protocol: Kinetic solubility was measured as described in Comput Aided Mol Des 2015, 29, 795.

[5] = Metabolic stability in rat hepatocytes (rHep); settings: n = 1 or geometric mean of n = 2-3
[6] = Metabolic stability in human liver microsomes (HLM); settings: human
Protocol: Metabolic stability in HLM was measured as described in J Comput Aided Mol Des 2015, 29, 795.

[7] = Solubility, kinetic solubility, n = 1 or average of n = 2-3
[8] = HLM CLint, n = 1 or average of n = 2-3

Sequence of human Fibroblast activation protein alpha (hFAP) (Q12884 38-760): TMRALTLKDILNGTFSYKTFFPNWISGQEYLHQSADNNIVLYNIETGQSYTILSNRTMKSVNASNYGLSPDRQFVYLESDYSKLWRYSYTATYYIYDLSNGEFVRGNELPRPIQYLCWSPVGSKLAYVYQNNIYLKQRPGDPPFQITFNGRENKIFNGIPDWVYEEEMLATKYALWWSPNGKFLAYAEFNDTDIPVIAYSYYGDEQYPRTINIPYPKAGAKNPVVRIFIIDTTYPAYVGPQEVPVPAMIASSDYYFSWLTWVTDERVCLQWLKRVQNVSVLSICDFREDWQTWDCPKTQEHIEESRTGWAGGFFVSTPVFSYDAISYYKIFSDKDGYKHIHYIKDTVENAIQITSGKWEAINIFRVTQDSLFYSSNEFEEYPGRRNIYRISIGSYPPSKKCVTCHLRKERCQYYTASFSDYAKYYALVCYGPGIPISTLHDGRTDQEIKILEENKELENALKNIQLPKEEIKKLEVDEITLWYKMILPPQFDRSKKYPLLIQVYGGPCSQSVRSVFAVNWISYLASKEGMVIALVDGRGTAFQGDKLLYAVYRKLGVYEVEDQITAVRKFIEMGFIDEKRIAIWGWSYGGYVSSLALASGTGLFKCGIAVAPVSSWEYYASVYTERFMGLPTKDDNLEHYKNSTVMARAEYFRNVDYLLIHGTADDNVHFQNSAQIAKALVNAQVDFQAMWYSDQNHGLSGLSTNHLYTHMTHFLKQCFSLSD
Sequence of Prolyl endopeptidase, Prolyl Oligopeptidase (hPREP) (P48147 whole entry): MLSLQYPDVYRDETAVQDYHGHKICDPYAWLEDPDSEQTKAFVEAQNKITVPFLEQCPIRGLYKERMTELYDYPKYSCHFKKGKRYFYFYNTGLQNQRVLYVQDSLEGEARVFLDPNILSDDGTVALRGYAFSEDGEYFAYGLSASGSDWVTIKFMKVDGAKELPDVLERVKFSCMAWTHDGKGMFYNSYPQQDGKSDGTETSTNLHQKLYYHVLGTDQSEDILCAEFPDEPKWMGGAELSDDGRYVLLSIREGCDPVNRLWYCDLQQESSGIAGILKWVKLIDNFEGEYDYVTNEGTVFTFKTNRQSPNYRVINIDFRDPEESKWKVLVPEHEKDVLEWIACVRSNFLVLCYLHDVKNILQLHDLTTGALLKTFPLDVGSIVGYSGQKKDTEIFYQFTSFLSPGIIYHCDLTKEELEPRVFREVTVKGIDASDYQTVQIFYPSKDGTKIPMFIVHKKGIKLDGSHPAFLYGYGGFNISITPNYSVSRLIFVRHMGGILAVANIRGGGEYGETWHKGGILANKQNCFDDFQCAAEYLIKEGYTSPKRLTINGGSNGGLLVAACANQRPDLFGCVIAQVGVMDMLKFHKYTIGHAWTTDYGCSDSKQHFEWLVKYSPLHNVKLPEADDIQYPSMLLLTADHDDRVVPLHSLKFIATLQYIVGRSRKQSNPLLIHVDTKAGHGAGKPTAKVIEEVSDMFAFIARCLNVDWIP
Sequence of hFAP (M39-A757) (Q12884 39-757): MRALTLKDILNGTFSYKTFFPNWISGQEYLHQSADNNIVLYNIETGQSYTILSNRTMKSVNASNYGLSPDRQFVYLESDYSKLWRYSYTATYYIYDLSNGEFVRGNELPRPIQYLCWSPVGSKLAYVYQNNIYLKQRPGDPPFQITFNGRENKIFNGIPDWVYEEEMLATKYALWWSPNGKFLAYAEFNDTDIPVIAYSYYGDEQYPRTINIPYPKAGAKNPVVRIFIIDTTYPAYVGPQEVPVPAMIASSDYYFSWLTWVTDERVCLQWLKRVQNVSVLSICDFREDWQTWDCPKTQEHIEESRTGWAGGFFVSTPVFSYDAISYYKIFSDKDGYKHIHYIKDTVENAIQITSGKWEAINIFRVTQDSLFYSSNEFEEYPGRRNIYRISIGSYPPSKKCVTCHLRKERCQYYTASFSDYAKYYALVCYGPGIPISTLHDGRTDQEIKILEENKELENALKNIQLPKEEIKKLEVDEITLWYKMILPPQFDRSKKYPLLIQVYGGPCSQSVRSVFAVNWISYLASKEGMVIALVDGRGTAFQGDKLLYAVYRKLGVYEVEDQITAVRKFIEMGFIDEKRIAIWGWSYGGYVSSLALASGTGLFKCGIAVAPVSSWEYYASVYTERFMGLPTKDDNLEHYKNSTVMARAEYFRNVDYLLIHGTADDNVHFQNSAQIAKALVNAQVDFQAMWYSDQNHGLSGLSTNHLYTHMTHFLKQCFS

Compound	IC50 [1]	hFAP Binding assay k(off) [2]	hFAP Binding assay k(on) [2]	Kd [2]	IC50 [3]	solubility [4]	rHep CLint [5]	microsomal CLint [6]	solubility [4, 7]	microsomal CLint [6, 8]
N#C[C@@H]1CSCN1C(=O)CNC(=O)c1ccnc2ccc(N3CC4(CCCC4(F)F)C3)cc12 [Example 141, (R)—N-(2-(4-Cyanothiazolidin-3-yl)-2-oxoethyl)-6-(5,5-difluoro-2-azaspiro[3.4]octan-2-yl)quinoline-4-carboxamide]	0.059 nM	0.000078 s⁻¹	1400000 M⁻¹ s⁻¹	0.062 nM	460 nM	140 µM (≈ 66 µg/mL)	11 μL/min/1E6	54 µL/min/mg		
N#C[C@@H]1CSCN1C(=O)CNC(=O)c1ccnc2ccc(N3CC(CCC(F)(F)F)C3)cc12 [Example 142, (R)—N-(2-(4-Cyanothiazolidin-3-yl)-2-oxoethyl)-6-(3-(3,3,3-trifluoropropyl)azetidin-1-yl)quinoline-4-carboxamide]	0.088 nM	0.000055 s⁻¹	1800000 M⁻¹ s⁻¹	0.028 nM	530 nM		6.7 μL/min/1E6		1.8 µM (≈ 0.86 µg/mL)	43 µL/min/mg
CC1(CC(F)(F)F)CN(c2ccc3nccc(C(=O)NCC(=O)N4CSC[C@H]4C#N)c3c2)C1 [Example 131, (R)—N-(2-(4-Cyanothiazolidin-3-yl)-2-oxoethyl)-6-(3-methyl-3-(2,2,2-trifluoroethyl)azetidin-1-yl)quinoline-4-carboxamide]	0.12 nM	0.00014 s⁻¹	1800000 M⁻¹ s⁻¹	0.033 nM	360 nM		16 μL/min/1E6		140 µM (≈ 66.9 µg/mL)	97 µL/min/mg
N#C[C@@H]1CSCN1C(=O)CNC(=O)c1ccnc2c(Cl)cc(N3CCOCC3)cc12 [Example 180, (R)-8-Chloro-N-(2-(4-cyanothiazolidin-3-yl)-2-oxoethyl)-6-morpholino-quinoline-4-carboxamide]	0.2 nM	0.00095 s⁻¹	560000 M⁻¹ s⁻¹	1.3 nM	590 nM		3 μL/min/1E6		170 µM (≈ 75.8 µg/mL)	110 µL/min/mg
N#C[C@@H]1CSCN1C(=O)CNC(=O)c1ccnc2ccc(N3CCC4(CC3)OCCCO4)cc12 [Example 227, (R)—N-(2-(4-cyanothiazolidin-3-yl)-2-oxoethyl)-6-(1,5-dioxa-9-azaspiro[5.5]undecan-9-yl)quinoline-4-carboxamide]					600 nM	852 µM (≈ 410 µg/mL)	2.8 μL/min/1E6	17 µL/min/mg		
CC1(C2CC2)CN(c2ccc3nccc(C(=O)NCC(=O)N4CSC[C@H]4C#N)c3c2)C1 [Example 134, (R)—N-(2-(4-Cyanothiazolidin-3-yl)-2-oxoethyl)-6-(3-cyclopropyl-3-methylazetidin-1-yl)quinoline-4-carboxamide]	0.13 nM	0.000080 s⁻¹	620000 M⁻¹ s⁻¹	0.13 nM	620 nM		74 μL/min/1E6		71 µM (≈ 30.9 µg/mL)	210 µL/min/mg
N#C[C@@H]1CSCN1C(=O)CNC(=O)c1ccnc2ccc(N3CC(CC(F)F)C3)cc12 [Example 144, (R)—N-(2-(4-Cyanothiazolidin-3-yl)-2-oxoethyl)-6-(3-(2,2-difluoroethyl)-azetidin-1-yl)quinoline-4-carboxamide]	0.081 nM	0.00051 s⁻¹	9100000 M⁻¹ s⁻¹	0.049 nM	460 nM		7 μL/min/1E6		18 µM (≈ 8.02 µg/mL)	14 µL/min/mg
N#C[C@@H]1CSCN1C(=O)CNC(=O)c1ccnc2ccc(N3CCO[C@@H](C(F)(F)F)C3)cc12 [Example 73, N-(2-((R)-4-Cyanothiazolidin-3-yl)-2-oxoethyl)-6-((R)-2-(trifluoromethyl)-morpholino)quinoline-4-carboxamide]	0.13 nM	0.00016 s⁻¹	2400000 M⁻¹ s⁻¹	0.066 nM	1800 nM		11 μL/min/1E6		310 µM (≈ 149 µg/mL)	32 µL/min/mg
CC1(C)CN(c2ccc3nccc(C(=O)NCC(=O)N4CSC[C@H]4C#N)c3c2)CCC1(F)F [Example 38, (R)—N-(2-(4-Cyanothiazolidin-3-yl)-2-oxoethyl)-6-(4,4-difluoro-3,3-dimethylpiperidin-1-yl)quinoline-4-carboxamide]	0.1 nM	0.000078 s⁻¹	520000 M⁻¹ s⁻¹	0.11 nM	480 nM		>300 μL/min/1E6		33 µM (≈ 15.6 µg/mL)	> 300 µL/min/mg
C[C@@H]1CN(c2ccc3nccc(C(=O)NCC(=O)N4CSC[C@H]4C#N)c3c2)C[C@H](C)[C@]1(C)O [Example 193, N-(2-((R)-4-Cyanothiazolidin-3-yl)-2-oxoethyl)-6-((3R,4S,5S)-4-hydroxy-3,4,5-trimethylpiperidin-1-yl)quinoline-4-carboxamide]	0.24 nM	0.00012 s⁻¹	740000 M⁻¹ s⁻¹	0.16 nM	360 nM		11 μL/min/1E6		940 µM (≈ 440 µg/mL)	53 µL/min/mg
C[C@H]1N(c2ccc3nccc(C(=O)NCC(=O)N4CSC[C@H]4C#N)c3c2)CC1(F)F (mixture of isomers) [Example 159, N-(2-((R)-4-Cyanothiazolidin-3-yl)-2-oxoethyl)-6-((RS)-3,3-difluoro-2-methylazetidin-1-yl)quinoline-4-carboxamide]	0.073 nM	0.000092 s⁻¹	2100000 M⁻¹ s⁻¹	0.039 nM	280 nM		47 μL/min/1E6		550 µM	61 µL/min/mg
C[C@]1(O)CCN(c2ccc3nccc(C(=O)NCC(=O)N4CSC[C@H]4C#N)c3c2)C1 [Example 168, N-(2-((R)-4-Cyanothiazolidin-3-yl)-2-oxoethyl)-6-((S)-3-hydroxy-3-methylpyrrolidin-1-yl)quinoline-4-carboxamide]	0.16 nM	0.000048 s⁻¹	1600000 M⁻¹ s⁻¹	0.032 nM	630 nM					
N#C[C@@H]1CSCN1C(=O)CNC(=O)c1ccnc2ccc(N3CCOc4ccccc43)cc12 [Example 6, (R)—N-(2-(4-Cyanothiazolidin-3-yl)-2-oxoethyl)-6-(2,3-dihydro-4H-benzo[b][1,4]oxazin-4-yl)quinoline-4-carboxamide]	0.51 nM	18 s⁻¹	40000000000 M⁻¹ s⁻¹	0.38 nM	200 nM		100 μL/min/1E6		120 µM (≈ 55.1 µg/mL)	
C[C@H]1OCCN(c2ccc3nccc(C(=O)NCC(=O)N4CSC[C@H]4C#N)c3c2)[C@H]1C [Example 81, N-(2-((R)-4-Cyanothiazolidin-3-yl)-2-oxoethyl)-6-((2R,3S)-2,3-dimethyl-morpholino)quinoline-4-carboxamide]		0.000063 s⁻¹	1400000 M⁻¹ s⁻¹		1700 nM					
